# Measured values as given in PMC10861852, “Loss of activation by GABA in vertebrate delta ionotropic glutamate receptors” (Proceedings of the National Academy of Sciences of the …, 2024).
# What was measured:
# DanGluD2A^Lc = experiment: Two-electrode voltage clamp, inhibition of constitutive current in oocytes; format: cell-based, Danio rerio; conditions: lurcher-mutant receptor
# AcaGluD = target: T1, AcaGluD (Acanthaster planci, UniProt A0A8B7XXR5); experiment: Two-electrode voltage clamp, ligand-gated currents in oocytes; format: cell-based
# T1 sequence (A0A8B7XXR5 24-958): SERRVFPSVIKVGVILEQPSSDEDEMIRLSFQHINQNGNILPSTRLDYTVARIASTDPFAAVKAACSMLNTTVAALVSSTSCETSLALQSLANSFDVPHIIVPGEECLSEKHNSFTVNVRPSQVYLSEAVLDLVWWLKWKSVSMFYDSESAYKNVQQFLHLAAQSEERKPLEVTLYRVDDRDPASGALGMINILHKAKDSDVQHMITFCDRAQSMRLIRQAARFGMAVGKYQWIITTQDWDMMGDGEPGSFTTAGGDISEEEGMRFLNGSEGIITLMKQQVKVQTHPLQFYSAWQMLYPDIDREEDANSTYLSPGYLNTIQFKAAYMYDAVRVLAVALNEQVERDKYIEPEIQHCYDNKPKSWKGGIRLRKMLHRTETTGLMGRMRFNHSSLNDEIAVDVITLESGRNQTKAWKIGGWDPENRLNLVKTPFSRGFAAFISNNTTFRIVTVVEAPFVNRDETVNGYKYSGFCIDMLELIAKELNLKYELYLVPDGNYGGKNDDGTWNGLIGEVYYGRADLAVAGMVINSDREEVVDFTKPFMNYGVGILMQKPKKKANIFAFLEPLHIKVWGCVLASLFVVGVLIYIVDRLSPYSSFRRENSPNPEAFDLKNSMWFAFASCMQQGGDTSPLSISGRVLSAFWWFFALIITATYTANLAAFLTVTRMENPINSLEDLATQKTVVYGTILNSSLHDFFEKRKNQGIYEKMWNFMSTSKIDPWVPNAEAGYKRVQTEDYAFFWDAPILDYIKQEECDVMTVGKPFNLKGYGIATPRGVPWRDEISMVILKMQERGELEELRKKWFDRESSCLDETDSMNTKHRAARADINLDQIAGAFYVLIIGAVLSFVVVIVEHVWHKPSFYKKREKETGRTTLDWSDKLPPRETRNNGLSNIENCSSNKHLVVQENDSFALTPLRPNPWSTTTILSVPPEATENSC
# RatGluD2^9x = target: T2, RatGluD2^9x (Rattus norvegicus, UniProt Q63226, A686S/D753Q/K694R/N720P/N763K/P806D/Q786M/R787V/Y613F); experiment: Two-electrode voltage clamp, responses to ligands in mutant-expressing oocytes; format: cell-based; conditions: ligands 30 mM
# T2 construct: expressed in transfected cells; host or cells: Xenopus laevis oocytes injected with mRNA
# T2 sequence (Q63226 24-1007 Y613F/A686S/K694R/N720P/D753Q/N763K/Q786M/R787V/P806D): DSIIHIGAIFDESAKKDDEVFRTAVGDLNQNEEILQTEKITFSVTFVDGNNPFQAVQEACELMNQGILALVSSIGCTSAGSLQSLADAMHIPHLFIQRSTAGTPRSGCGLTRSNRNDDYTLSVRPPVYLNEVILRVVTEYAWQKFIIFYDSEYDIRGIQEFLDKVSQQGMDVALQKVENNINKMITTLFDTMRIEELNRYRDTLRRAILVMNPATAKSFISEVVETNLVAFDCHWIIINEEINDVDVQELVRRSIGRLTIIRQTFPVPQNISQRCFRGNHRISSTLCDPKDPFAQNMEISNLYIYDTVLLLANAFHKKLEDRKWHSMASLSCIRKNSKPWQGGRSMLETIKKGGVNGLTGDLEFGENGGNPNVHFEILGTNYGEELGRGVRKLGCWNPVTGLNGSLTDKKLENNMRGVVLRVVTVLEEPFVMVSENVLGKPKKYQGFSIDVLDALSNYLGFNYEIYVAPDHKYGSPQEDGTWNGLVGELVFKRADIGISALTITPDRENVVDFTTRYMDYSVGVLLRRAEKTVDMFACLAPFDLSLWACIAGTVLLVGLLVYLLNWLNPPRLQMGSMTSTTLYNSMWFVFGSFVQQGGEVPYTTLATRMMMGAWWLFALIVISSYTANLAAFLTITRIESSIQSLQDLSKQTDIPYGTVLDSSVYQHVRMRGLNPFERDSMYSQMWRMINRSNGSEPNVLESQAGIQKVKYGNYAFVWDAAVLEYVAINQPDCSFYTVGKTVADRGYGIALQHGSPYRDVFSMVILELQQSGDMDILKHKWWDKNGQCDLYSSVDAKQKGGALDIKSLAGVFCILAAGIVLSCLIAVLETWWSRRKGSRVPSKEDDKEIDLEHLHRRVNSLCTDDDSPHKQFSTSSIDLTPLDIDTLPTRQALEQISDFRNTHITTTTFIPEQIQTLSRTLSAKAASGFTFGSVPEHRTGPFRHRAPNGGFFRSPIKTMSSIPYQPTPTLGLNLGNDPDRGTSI
# Excerpt: If the 10 mutations discussed above drove the loss of function in vertebrate delta iGluRs, one might expect that the latter could be “reawakened” via active invertebrate delta iGluR-like mutations here. We therefore engineered mutant RatGluD2 iGluRs to contain at these positions the equivalent residues from starfish delta iGluRs. These mutants were RatGluD2^5x, containing Y613F, A686S, K694R, N720P, and P806D substitutions (pink in Fig. 6A), and RatGluD2^9x, additionally containing N763K, D753Q, Q786M, and R787V (cyan in Fig. 6A).
# Fig. 6. AcaGluD-like mutations alter RatGluD2 receptor function. (A) D-serine bound RatGluD2 from X-ray structure PDB:2v3u ([13]). Selected amino acid residues are indicated, colored, shown as sticks, and labeled 5×, 9×, 10×, and/or Lc according to the multiple mutants they were incorporated into. 10× mutant included 10×, 9×, and 5× positions. 9× included 9× and 5×. 5× included only 5×. […] (B–E) Example current responses to different neurotransmitter ligands (30 mM) and to pore blocker pentamidine (Pent, 100 μM) in oocytes expressing indicated RatGluD2 mutants. The dashed line indicates zero current baseline. (F) Individual (dots) and mean (columns) responses to ligands in oocytes expressing indicated RatGluD2 mutants (n = 4 to 5).
Structure (SMILES),effect on constitutive currents (DanGluD2A^Lc),"relative efficacy (AcaGluD; WT, relative ligand-gated current amplitude, n = 7) [%]",current response to ligand (RatGluD2^9x),inactivation of constitutive current relative to D-serine (DanGluD2A^Lc; n = 4) [%],"EC50 (AcaGluD; 0 Ca2+, n = 5) [mM]","maximum GABA-gated current amplitude (AcaGluD; WT, mutant comparison (Fig. 5B), n = 4) [μA]",maximum ligand-gated current amplitude (AcaGluD; in the presence of 1.8 mM Ca2+) [µA],"EC50 (AcaGluD; ligand-gated current, 1.8 mM Ca2+ (regular bath solution), n = 5) [mM]",maximum ligand-gated current amplitude (AcaGluD; nominally Ca2+-free solutions) [µA],"EC50 (AcaGluD; 0 Ca2+, n = 4) [mM]","EC50 (AcaGluD; ligand-gated current, 1.8 mM Ca2+ (regular bath solution)) [mM]"
N[C@H](CO)C(=O)O [D-serine],inactivated,12 ± 3,no responses,,,,,,,,
"NCCCC(=O)O [GABA, γ-aminobutyric acid]",,,no responses,58 ± 8,0.005 ± 0.0006,8.2 ± 1.1,6.0 ± 1.0,0.013 ± 0.003,0.42 ± 0.13,,
NCC(=O)O [glycine],inactivated,,no responses,,,,0.33 ± 0.01,,0.08 ± 0.01,2 ± 0.1,2 ± 0.1
